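The compound was tested at five concentrations on cells cultured in 96-well plates, with a 48-hour exposure period. GI50 = concentration required for 50% inhibition of growth.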 Activity calls are given as the source filed them. Rule as the data show it: active = GI50 up to about 1.1 µM and inactive = higher.
Key:
Experiment in all cases: NCI anticancer screen, dose series, 48 h
MDA-MB-231 = test system: MDA-MB-231
PC-3 = test system: PC-3
HOP-62 = test system: HOP-62
LOX IMVI = test system: LOX IMVI
A549 = test system: A549
T47D = test system: T47D
SF-295 = test system: SF-295
KM12 = test system: KM12
MDA-MB-435 = test system: MDA-MB-435
NCI-H23 = test system: NCI-H23
OVCAR-5 = test system: OVCAR-5
DU-145 = test system: DU-145
EKVX = test system: EKVX
U-251 = test system: U-251
UACC-257 = test system: UACC-257
TK-10 = test system: TK-10
UACC-62 = test system: UACC-62
IGROV-1 = test system: IGROV-1
SR = test system: SR
RXF 393 = test system: RXF 393

Measured: GI50

COc1cc2c3c(c1Oc1nnnn1-c1ccccc1)-c1c(ccc4c1OCO4)C[C@H]3N(C)CC2
inactive: MDA-MB-231 41.8 µM | PC-3 38.6 µM | HOP-62 60.5 µM | LOX IMVI 29 µM | A549 45.6 µM | T47D 33.7 µM | SF-295 32.2 µM | KM12 32.1 µM | MDA-MB-435 20.2 µM | NCI-H23 36.6 µM | OVCAR-5 > 100 µM | DU-145 71 µM | EKVX 32.4 µM | U-251 69 µM | UACC-257 20.5 µM | TK-10 75.5 µM | UACC-62 14.3 µM | IGROV-1 41.6 µM | SR 46.7 µM

OCCCc1cc(O)c2c(c1)C(CO)C(c1ccc(O)c(O)c1)O2 (centres undefined)
inactive: MDA-MB-231 > 100 µM | PC-3 > 100 µM | HOP-62 > 100 µM | LOX IMVI > 100 µM | A549 > 100 µM | T47D 80.2 µM | SF-295 > 100 µM | KM12 > 100 µM | MDA-MB-435 > 100 µM | NCI-H23 > 100 µM | OVCAR-5 > 100 µM | DU-145 > 100 µM | EKVX > 100 µM | U-251 > 100 µM | UACC-257 > 100 µM | TK-10 > 100 µM | UACC-62 > 100 µM | IGROV-1 > 100 µM | SR > 100 µM

CC(C)CCCC(C)[C@H]1CC[C@H]2n3c(nnc3-c3ccccc3)CCC[C@]12C (some centres undefined)
inactive: MDA-MB-231 15 µM | PC-3 9.33 µM | HOP-62 16 µM | LOX IMVI 1.86 µM | A549 9.86 µM | T47D 11.7 µM | SF-295 9.08 µM | KM12 28.8 µM | MDA-MB-435 10.7 µM | NCI-H23 12.4 µM | DU-145 16.2 µM | U-251 7.19 µM | UACC-257 13.3 µM | TK-10 21.5 µM | RXF 393 11.5 µM | UACC-62 12.4 µM | IGROV-1 5.74 µM | SR 4.06 µM

N#Cc1ccc(/C=C2\Cc3ccccc3C2=O)cc1
inactive: MDA-MB-231 > 100 µM | PC-3 > 100 µM | HOP-62 > 100 µM | A549 > 100 µM | T47D 36.3 µM | SF-295 > 100 µM | KM12 > 100 µM | MDA-MB-435 > 100 µM | NCI-H23 > 100 µM | DU-145 > 100 µM | EKVX 46.8 µM | UACC-257 75.2 µM | TK-10 > 100 µM | RXF 393 > 100 µM | UACC-62 > 100 µM | SR > 100 µM

COc1ccc(S(=O)(=O)N2C(=O)CCC2C(=O)NC(N)=O)cc1 (centres undefined)
inactive: MDA-MB-231 > 100 µM | PC-3 > 100 µM | HOP-62 > 100 µM | LOX IMVI > 100 µM | A549 > 100 µM | T47D > 100 µM | SF-295 > 100 µM | KM12 > 100 µM | MDA-MB-435 > 100 µM | NCI-H23 > 100 µM | OVCAR-5 > 100 µM | DU-145 > 100 µM | EKVX > 100 µM | U-251 > 100 µM | UACC-257 > 100 µM | TK-10 > 100 µM | UACC-62 > 100 µM | IGROV-1 > 100 µM | SR > 100 µM

Cc1cn(C2CC(SCCO)C(CO)O2)c(=O)[nH]c1=O (centres undefined)
inactive: MDA-MB-231 > 100 µM | PC-3 > 100 µM | HOP-62 > 100 µM | A549 > 100 µM | T47D > 100 µM | SF-295 > 100 µM | KM12 > 100 µM | MDA-MB-435 > 100 µM | NCI-H23 > 100 µM | OVCAR-5 > 100 µM | DU-145 > 100 µM | EKVX > 100 µM | U-251 > 100 µM | UACC-257 > 100 µM | RXF 393 > 100 µM | UACC-62 > 100 µM | IGROV-1 > 100 µM | SR > 100 µM

From ChEMBL document CHEMBL1201862, “PubChem BioAssay data set” (2004)
